Source: patent publication US6635671B1, “Compounds which affect mRNA stability and uses therefor” (Novation Pharmaceuticals Inc., priority 1998, dated 2003)
Read-outs that look alike come from different tables or passages of the source.

How the values were obtained:
[1] = tested on: THP-1 clone No. 63 (pGL2_Neo30; luciferase mRNA with three tandem AUUUA motifs of the IL-1β 3′UTR); assay: Luciferase reporter gene assay, clone No. 63 (pGL2_Neo30, with mRNA instability sequence); format: cell-based, human; parameters: Luciferase reporter gene assay, luciferase activity: unit not given here; settings: for Luciferase reporter gene assay, luciferase activity: clone 63; for inhibition at 1 µM: Homo sapiens, THP-1, clone No. 63
Text: (§1) In order to obtain a vector for stable integration into THP-1 cells, a XhoI-SalI fragment of the neo resistant gene (expressing aminoglycoside 3′ phosphotransferase) derived from pMCIneo (Stratagene) is subcloned into the SalI site of pGL2Control (Promega). This resulting plasmid was called pGL2_Neo. A 30 bp fragment (containing three tandem AUUUA motifs, based on the IL-Iβ3′UTR sequence) obtained by annealing two complementary synthetic oligonucleotides (see FIG. 1) is subcloned into pGL2 Neo using the PflM1 restriction site.
(§2) The resulting vectors pGL2_Neo30 and pGL2_Neo are transfected into THP-1 cells by electroporation. 10^7 cells/ml in 1.3 mM KH2PO4, 7.36 m.M Na2HPO4, 2.44 mM KCl, 124 mm NaCl, 5 mM glucose, 9.6 μM MgCl2 and 16 μM CaCI2 pH 7.2 are transfected with 20 μg of DNA in a Bio-Rad Gene Pulser (250V, 690 μF and indefinite resistance) using a 0.4 cm cuvette. Cells are subsequently cultured in RPMI medium containing 10%FBS, 2mM L-Gln (L-glutamine), 50 μM 2mercaptoethanol and 600 μg/ml of G418 (geneticin). After transfection of pGL2_Neo30 and pGL2_Neo into THP-1 cells, stable cell lines are obtained by selection for G418 resistance and assayed for luciferase activity. One cell line of each transfection is chosen for further analysis; the pGL2_Neo30 cell line is referred to as clone No. 63 and the pGL2_Neo cell line as clone No. 53. No endogenous luciferase activity could be detected in normal THP-1 cells.
(§3) The transfected human monocytic leukemia cell lines, clones No. 53 and 63 are grown in RPMI medium supplemented with 110 U/ml penicillin, 100 μg/ml streptomycin, 2 mM L-Gln and 2 g/l NaHCO3. Heat-treated FBS (5%) is added before use. The cells are grown to a density of 5×10^5/ml and induced to differentiate with 100 U/ml (final concentration) γIFN. Three hours later, 10 μl of LPS (5 μg/ml final concentration) is added. This time point is designated time 0. Compounds are added at various times after LPS addition as indicated.
(§4) In order to adapt the system to the use of 96 well plates, cells are grown in Packard flat bottom white polystyrene microplates (Cat No.6005180) in RPMI medium lacking phenol red (AMIMED). Cells are plated at 5×10^4/well. After treatment of the cells, luciferase is measured using the Packard Luc Lite system (Cat. No.601691 1) according to the manufacturer's instructions in a final volume of 205 μl. Briefly, to a cell suspension of 5×10^5 cells/ml, γIFN (1000 U/ml Boehringer Mannheim No. 1050494) to a final concentration of 100 U/ml and 0.25% (v/v) Luc Lite Enhancer is added. After a 3 hour incubation LPS (50 μg/ml SIGMA L-8274) is added to give 5 μg/ml final concentration. The cells are then plated at 5×10^4/100 l/well into flat bottom white polystyrene microplates (Packard, Cat No. 6005180) and incubated for 16 hours. 5 μl of compound solution or control vehicle is then added and the cells are further incubated as indicated. 100 μl of luciferase substrate solution is added and the plates are covered with TopSeal-A press-on adhesive sealing film (Packard Cat.No. 6005185) before measuring luminescence with a Packard Top Count Scintillation Counter at 22° C. The luciferase signal is stable for at least 90 min.
(§5) The THP-1 cell lines, clone No. 63 (containing PGL2_Neo30) and clone No. 53 (containing pGL2-Control) are grown, differentiated and stimulated with γIFN and LPS identical to normal THP-1 cells. Radicicol analog A is added 16 hours after the addition of LPS and cell extracts are then taken 8 hours later or as indicated. Luciferase activity is inhibited by 1 μM radicicol analog A on average by 50%±17%, in some cases inhibition was as great as 93%, whereas up to 5×10^−6M of radical analog A has no effects on the control clone No. 53, FIG. 3 (solid bars indicate clone No. 53, open bars clone No. 63).
(§6) A number of radicicol analogues are tested for their activity in the reporter assay substantially as described in the previous Examples.

[2] = tested on: THP-1 clone No. 53 (pGL2_Neo / pGL2-Control); assay: Luciferase reporter gene assay, control clone No. 53 (no instability sequence); format: cell-based, human; parameters: Luciferase reporter gene assay, luciferase activity: unit not given here; settings: for Luciferase reporter gene assay, luciferase activity: clone 53
Text: as §1, §2, §3, §4, §5, §6

[3] = tested on: IL-1β; settings: THP-1 cells activated by IFN-γ and LPS; cited from earlier work
[4] = tested on: IL-1β mRNA; settings: THP-1 cells activated by IFN-γ and LPS; cited from earlier work
[5] = tested on: IL-6 mRNA; settings: THP-1 cells activated by IFN-γ and LPS; cited from earlier work
[6] = tested on: TNF-α mRNA; settings: THP-1 cells activated by IFN-γ and LPS; cited from earlier work

Effect on luciferase activity of control clone ([2]; clone No. 53, up to 5×10^−6M) | Compound | Luciferase reporter gene assay, luciferase activity ([1]; 0.5 μM) | Luciferase reporter gene assay, luciferase activity ([1]; 1 μM) | Luciferase reporter gene assay, luciferase activity ([1]; 5 μM) | Luciferase reporter gene assay, luciferase activity ([2]; 0.5 μM) | Luciferase reporter gene assay, luciferase activity ([2]; 1 μM) | Luciferase reporter gene assay, luciferase activity ([2]; 5 μM) | inhibition at 1 µM ([1]; 1 μM, added 16 h after LPS, extracts 8 h later, read-out: Inhibition of luciferase activity, on average) [%] | inhibition at 1 µM ([1]; 1 μM, read-out: Inhibition of luciferase activity, greatest inhibition in some cases) [%] | Secretion of IL-1β [3] | Time of degradation of IL-1β mRNA to undetectable levels [4] [h] | Time of degradation of IL-6 mRNA to undetectable levels [5] [h] | Time of degradation of TNF-α mRNA to undetectable levels [6] [h]
 | C[C@@H]1C[C@H]2O[C@@H]2/C=C\C=C\C(=O)Cc2c(Cl)c(O)cc(O)c2C(=O)O1 | 42 | 18 | 3 | 68 | 51 | 40 |  |  |  |  |  | 
 | COc1cc(O)c2c(c1)/C=C/CC(O)C(O)C(=O)CCCC(C)OC2=O (stereo not shown) | 107 | 93 | 70 | 103 | 122 | 104 |  |  |  |  |  | 
no effects | COc1cc(O)c2c(c1OC)/C=C/C[C@H](O)[C@H](O)C(=O)/C=C\C[C@H](C)OC2=O [radicicol analog A] |  |  |  |  |  |  | 50 | 93 | inhibited the secretion of IL-1β | 5 to 8 | 5 to 8 | 5 to 8
 | C[C@@H]1C[C@H]2O[C@@H]2CCCCC(=O)Cc2cc(O)cc(O)c2C(=O)O1 | 80 | 66 | 61 | 83 | 81 | 70 |  |  |  |  |  | 
 | COc1cc(O)c2c(c1OC)/C=C/C[C@H](O)[C@H](O)C(=O)/C=C\C[C@H](C)OC2=O [drawing 13] | 69 | 32 | 9 | 136 | 140 | 108 |  |  |  |  |  | 
 | COc1cc(O)c2c(c1)/C=C/CC(O)C(O)C(=O)/C=C\CC(C)OC2=O (stereo not shown) | 97 | 88 | 87 | 114 | 105 | 107 |  |  |  |  |  | 
 | COc1cc(O)c2c(c1OC)/C=C/C[C@H](O)[C@H](O)C(=O)/C=C/C[C@H](C)OC2=O | 96 | 94 | 7 | 97 | 91 | 55 |  |  |  |  |  | 
 | C[C@@H]1C[C@H]2O[C@@H]2CCCCC(=O)Cc2c(Cl)c(O)cc(O)c2C(=O)O1 | 88 | 64 | 57 | 99 | 77 | 69 |  |  |  |  |  | 
